Columns and labels:
NK-1 = target: T1, NK-1 (Homo sapiens, UniProt P25103); test: NK1 radioligand binding assay ([125I]Substance P, U373 cell membranes); conditions: 1 hour at room temperature
T1 construct: endogenous in cells; host or cells: U373 cells (crude membranes)
Description: (§1) NK-1 Binding assay. Crude membrane suspensions were prepared for the NK1 and SERT radioligand binding assays from U373 cells or recombinant HEK-293 cells expressing hSERT, respectively. Cells were harvested from T-175 flasks as follows. The medium is removed from the flasks and the cells rinsed with HBSS without Ca and without Mg. The cells are then incubated for 5-10 minutes in 10 mM Tris-Cl, pH 7.5, 5 mM EDTA before the cells are lifted with a combination of pipetting and scraping, as needed. To prepare membranes, the cell suspension is collected into centrifuge bottles and homogenized for 30 seconds with a Polytron homogenizer. The suspension is centrifuged for 30 min @ 32,000×g, 4° C., then the supernatant is decanted and the pellet resuspended and homogenized in 50 mM Tris-Cl, pH 7.5, 1 mM EDTA for 10 seconds. The suspension is then centrifuged again for 30 min @ 32,000×g, 4° C. The supernatant is decanted and the pellet resuspended in 50 mM Tris-Cl, pH 7.5, 1 mM EDTA and briefly homogenized. A Bradford assay (Bio-rad) is performed and the membrane preparation diluted to 2 mg/ml with 50 mM Tris-Cl, pH 7.5, 1 mM EDTA. Aliquots are prepared, and then frozen and stored at −80° C.
NK1 radioligand binding assay. Compounds are dissolved in 100% DMSO at a concentration 100× the desired highest assay concentration, serially diluted 1:3 in 100% DMSO, and 0.6 ul/well of each solution is dispensed to a Nunc polypropylene, round bottom, 384 well plate. 100% inhibition is defined with 0.6 ul/well of 1 mM L-733,060 (Sigma L-137) dissolved in DMSO. 30 ul/well of a 2×U373 membrane preparation (267 ug/ml in 100 mM Tris-Cl, pH 7.5, 6 mM MgCl2, 0.2% (v/v) Sigma mammalian protease inhibitor cocktail (Sigma P-8340), and 4 ug/ml chymostatin, Sigma C-7268) and 30 ul/well of a 2×radioligand solution (400 pM [^125I]Substance P (Perkin Elmer NEX-190) in 1% (w/v) BSA (Sigma A-2153), 0.1 mg/ml bacitracin, Sigma B-0125) are added to the well and the reaction incubated for 1 hour at room temperature. The contents of the assay plate are then transferred to a Millipore MultiscreenHTS GF/B filter plate which has been pretreated with 0.5% PEI for at least one hour. The plate is vacuum filtered and washed with 7 washes of 100 ul/well of 20 mM Tris-Cl, pH 7.5, 0.5% (w/v) BSA chilled to 4° C. The filtration and washing is completed in less than 90 s. The plates are air-dried overnight, 12 ul/well of MicroScint scintillation fluid added, and the plates counted in a Trilux.
(§2) Data analysis. The raw data are normalized to percent inhibition using control wells defining 0% (DMSO only) and 100% (selective inhibitor) inhibition which are run on each plate. Each plate is run in triplicate, and the concentration response curve thus generated is fit using the four-parameter dose response equation, Y=Bottom+(Top-Bottom)/(1+10^((LogIC50-X)*HillSlope)) in order to determine the IC50 value for each compound. The radioligand concentration chosen for each assay corresponds to the Kd concentration determined through saturation binding analysis for each assay.

hSERT = target: T2, hSERT (Homo sapiens, UniProt P31645); test: SERT radioligand binding assay ([125I]RTI-55, HEK-hSERT membranes); conditions: [125I]RTI-55, 1 hour at room temperature
T2 construct: expressed in transfected cells; host or cells: HEK-293 cells (crude membranes)
Description: as §1
SERT radioligand binding assay. Compounds are dissolved in 100% DMSO at a concentration 100× the desired highest assay concentration, serially diluted 1:3 in 100% DMSO, and 0.4 ul/well of each solution is dispensed to a Nunc polypropylene, round bottom, 384 well plate. 100% inhibition is defined with 0.4 ul/well of 1 mM fluoxetine (Sigma F-132) dissolved in DMSO. 20 ul/well of a 2×HEK-hSERT membrane preparation (15 ug/ml in 50 mM Tris-Cl, pH 7.5, 120 mM NaCl, 5 mM KCl) and 20 ul/well of a 2×radioligand solution (520 pM [^125I]RTI-55 (Perkin-Elmer NEX-272) in 50 mM Tris-Cl, pH 7.5, 120 mM NaCl, 5 mM KCl) are added to each well and the reaction incubated for 1 hour at room temperature. The contents of the assay plate are then transferred to a Millipore MultiscreenHTS GF/B filter plate which has been pretreated with 0.5% PEI for at least one hour. The plate is vacuum filtered and washed with 7 washes of 100 ul/well of 50 mM Tris-Cl, pH 7.5, 120 mM NaCl, 5 mM KCl chilled to 4° C. The filtration and washing is completed in less than 90 s. The plates are air-dried overnight, 12 ul/well of MicroScint scintillation fluid added, and the plates counted in a Trilux.
as §2

T2 sequence (P31645 whole entry): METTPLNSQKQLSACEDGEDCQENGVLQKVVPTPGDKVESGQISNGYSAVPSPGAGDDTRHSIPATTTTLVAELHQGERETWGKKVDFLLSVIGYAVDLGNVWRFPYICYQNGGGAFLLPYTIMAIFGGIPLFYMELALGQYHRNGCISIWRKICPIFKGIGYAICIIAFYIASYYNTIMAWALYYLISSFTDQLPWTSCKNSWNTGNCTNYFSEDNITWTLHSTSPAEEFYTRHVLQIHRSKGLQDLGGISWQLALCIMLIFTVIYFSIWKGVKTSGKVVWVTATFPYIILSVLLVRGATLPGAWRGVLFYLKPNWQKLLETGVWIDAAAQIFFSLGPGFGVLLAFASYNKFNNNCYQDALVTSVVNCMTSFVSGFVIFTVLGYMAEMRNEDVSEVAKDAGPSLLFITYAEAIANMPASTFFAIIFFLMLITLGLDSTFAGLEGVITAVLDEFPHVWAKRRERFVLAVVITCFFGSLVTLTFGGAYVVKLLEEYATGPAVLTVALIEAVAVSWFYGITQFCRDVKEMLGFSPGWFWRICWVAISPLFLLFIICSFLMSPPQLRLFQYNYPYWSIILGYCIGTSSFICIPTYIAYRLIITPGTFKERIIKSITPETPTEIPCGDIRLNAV
T1 sequence (P25103 whole entry): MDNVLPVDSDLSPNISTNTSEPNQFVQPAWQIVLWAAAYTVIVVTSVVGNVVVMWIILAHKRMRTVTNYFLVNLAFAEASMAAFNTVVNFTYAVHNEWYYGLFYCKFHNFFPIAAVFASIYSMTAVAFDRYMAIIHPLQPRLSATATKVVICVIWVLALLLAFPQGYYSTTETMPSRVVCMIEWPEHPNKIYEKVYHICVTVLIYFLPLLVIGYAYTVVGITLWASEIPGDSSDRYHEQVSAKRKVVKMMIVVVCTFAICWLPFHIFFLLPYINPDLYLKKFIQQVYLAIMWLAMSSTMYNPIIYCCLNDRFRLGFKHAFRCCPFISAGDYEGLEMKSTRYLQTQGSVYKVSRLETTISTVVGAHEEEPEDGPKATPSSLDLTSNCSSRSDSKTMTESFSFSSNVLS

SMILES | IC50 (NK-1) [nM] | IC50 (hSERT) [nM]
N#Cc1cccc(-c2cc(COCC3(CCN)OCc4ccccc43)cc(C(F)(F)F)c2)c1 (centres unmarked) [Example 4] | 100 to 300 | 100 to 300
NCCC1(COCc2cc(-c3ccccc3C(N)=O)cc(C(F)(F)F)c2)OCc2ccccc21 (centres unmarked) [Example 5] | > 300 | > 300
N#Cc1ccccc1-c1cc(COCC2(CCN)OCc3ccccc32)cc(C(F)(F)F)c1 (centres unmarked) [Example 6] | 100 to 300 | 100 to 300
NCCC1(COCc2cc(-c3cccc(Cl)c3)cc(C(F)(F)F)c2)OCc2ccccc21 (centres unmarked) [Example 13] | 100 to 300 | > 300
NCCC1(COCc2cc(-c3ccccc3Cl)cc(C(F)(F)F)c2)OCc2ccccc21 (centres unmarked) [Example 14] | 100 to 300 | > 300
CN(C)CCC1(COCc2cc(-c3ccncc3)cc(C(F)(F)F)c2)OCc2ccccc21 (centres unmarked) [Example 19] | 0.01 to 100 | 0.01 to 100
CN(C)CCC1(COCc2cc(N3CCOCC3)cc(C(F)(F)F)c2)OCc2ccccc21 (centres unmarked) [Example 20, N,N-dimethyl-2-(1-((3-morpholino-5-(trifluoromethyl)benzyloxy)methyl)-1,3-dihydroisobenzofuran-1-yl)ethanamine] | 0.01 to 100 | 0.01 to 100
CN(C)CCC1(COCc2cc(C(F)(F)F)cc(C(F)(F)F)c2)OCc2cc(C#N)ccc21 (centres unmarked) [Example 21] | 0.01 to 100 | > 300
CN(C)CCC1(COCc2cc(Br)cc(C(F)(F)F)c2)OCc2cc(C#N)ccc21 (centres unmarked) [Example 22] | 0.01 to 100 | > 300
N#Cc1ccc2c(c1)COC2(CCN)COCc1cc(C(F)(F)F)cc(C(F)(F)F)c1 (centres unmarked) [Example 23] | 0.01 to 100 | 100 to 300
N#Cc1ccc2c(c1)COC2(CCN)COCc1cc(Br)cc(C(F)(F)F)c1 (centres unmarked) [Example 24] | 0.01 to 100 | 0.01 to 100
CN(C)CCC1(COCc2cc(-c3ccc(C#N)cc3)cc(C(F)(F)F)c2)OCc2cc(C#N)ccc21 (centres unmarked) [Example 25] | 0.01 to 100 | > 300
CN(C)CCC1(COCc2cc(-c3ccncc3)cc(C(F)(F)F)c2)OCc2cc(C#N)ccc21 (centres unmarked) [Example 26] | 100 to 300 | > 300
CC(OCC1(CCN(C)C)OCc2ccccc21)c1cc(Br)cc(C(F)(F)F)c1 (centres unmarked) [Example 27] | 0.01 to 100 | 100 to 300
CC(OCC1(CCN)OCc2ccccc21)c1cc(Br)cc(C(F)(F)F)c1 (centres unmarked) [Example 28] | 0.01 to 100 | > 300
CC(OCC1(CCN(C)C)OCc2ccccc21)c1cc(C(F)(F)F)cc(C(F)(F)F)c1 (centres unmarked) [Example 29] | 0.01 to 100 | > 300
CC(OCC1(CCN)OCc2ccccc21)c1cc(C(F)(F)F)cc(C(F)(F)F)c1 (centres unmarked) [Example 30] | 0.01 to 100 | > 300
CN(C)CCC1(COCc2cc(Cl)cc(Br)c2)OCc2ccccc21 (centres unmarked) [Example 31] | 100 to 300 | 0.01 to 100
NCCC1(COCc2cc(Cl)cc(Br)c2)OCc2ccccc21 (centres unmarked) [Example 32] | 0.01 to 100 | 0.01 to 100
CN(C)CCC1(COCc2cc(Cl)cc(-c3ccc(C#N)cc3)c2)OCc2ccccc21 (centres unmarked) [Example 33] | 0.01 to 100 | 0.01 to 100
N#Cc1ccc(-c2cc(Cl)cc(COCC3(CCN)OCc4ccccc43)c2)cc1 (centres unmarked) [Example 34] | 0.01 to 100 | 0.01 to 100
NCCC1(COCc2cc(C(F)(F)F)cc(C(F)(F)F)c2)OCc2ccccc21 (centres unmarked) [Example 35, 2-(1-((3,5-Bis(trifluoromethyl)benzyloxy)methyl)-1,3-dihydroisobenzofuran-1-yl)ethanamine] | 0.01 to 100 | 100 to 300
CN(C)CCC1(COCc2cc(C(F)(F)F)cc(C(F)(F)F)c2)OCc2ccccc21 (centres unmarked) [Example 36, 2-(1-((3,5-Bis(trifluoromethyl)benzyloxy)methyl)-1,3-dihydroisobenzofuran-1-yl)-N,N-dimethylethanamine] | 0.01 to 100 | 0.01 to 100
NCCCC1(COCc2cc(C(F)(F)F)cc(C(F)(F)F)c2)OCc2ccccc21 (centres unmarked) [Example 37, 3-(1-((3,5-Bis(trifluoromethyl)benzyloxy)methyl)-1,3-dihydroisobenzofuran-1-yl)propan-1-amine] | 0.01 to 100 | 0.01 to 100

The next lines start with the values.

IC50 (NK-1) [nM] | IC50 (hSERT) [nM] | SMILES
0.01 to 100 | 0.01 to 100 | NCCC1(COCc2cc(Br)cc(C(F)(F)F)c2)OCc2ccccc21 (centres unmarked) [Example 1, 2-(1-((3-bromo-5-(trifluoromethyl)benzyloxy)methyl)-1,3-dihydroisobenzofuran-1-yl)ethanamine]
0.01 to 100 | 100 to 300 | N#Cc1ccc(-c2cc(COCC3(CCN)OCc4ccccc43)cc(C(F)(F)F)c2)cc1 (centres unmarked) [Example 2, 3′-(((1-(2-aminoethyl)-1,3-dihydroisobenzofuran-1-yl)methoxy)methyl)-5′-(trifluoromethyl)biphenyl-4-carbonitrile]
0.01 to 100 | 100 to 300 | NCCC1(COCc2cc(-c3ccncc3)cc(C(F)(F)F)c2)OCc2ccccc21 (centres unmarked) [Example 3]
0.01 to 100 | > 300 | COc1ccc(-c2cc(COCC3(CCN)OCc4ccccc43)cc(C(F)(F)F)c2)cc1 (centres unmarked) [Example 7]
0.01 to 100 | 100 to 300 | NCCC1(COCc2cc(-c3ccc(Cl)cc3)cc(C(F)(F)F)c2)OCc2ccccc21 (centres unmarked) [Example 8]
0.01 to 100 | 100 to 300 | NCCC1(COCc2cc(-c3ccc(F)cc3)cc(C(F)(F)F)c2)OCc2ccccc21 (centres unmarked) [Example 9]
0.01 to 100 | 100 to 300 | NCCC1(COCc2cc(-c3cccc(F)c3)cc(C(F)(F)F)c2)OCc2ccccc21 (centres unmarked) [Example 10]
0.01 to 100 | 100 to 300 | NCCC1(COCc2cc(-c3ccc(F)c(F)c3)cc(C(F)(F)F)c2)OCc2ccccc21 (centres unmarked) [Example 11]
0.01 to 100 | > 300 | COc1ccc(-c2cc(COCC3(CCN)OCc4ccccc43)cc(C(F)(F)F)c2)cc1F (centres unmarked) [Example 12]
0.01 to 100 | 100 to 300 | NCCC1(COCc2cc(-c3ccc(F)cc3F)cc(C(F)(F)F)c2)OCc2ccccc21 (centres unmarked) [Example 15]
0.01 to 100 | > 300 | NCCC1(COCc2cc(N3CCOCC3)cc(C(F)(F)F)c2)OCc2ccccc21 (centres unmarked) [Example 16, 2-(1-((3-morpholino-5-(trifluoromethyl)benzyloxy)methyl)-1,3-dihydroisobenzofuran-1-yl)ethanamine]
0.01 to 100 | 0.01 to 100 | CN(C)CCC1(COCc2cc(Br)cc(C(F)(F)F)c2)OCc2ccccc21 (centres unmarked) [Example 17, 2-(1-((3-bromo-5-(trifluoromethyl)benzyloxy)methyl)-1,3-dihydroisobenzofuran-1-yl)-N,N-dimethylethanamine]
0.01 to 100 | 100 to 300 | CN(C)CCC1(COCc2cc(-c3ccc(C#N)cc3)cc(C(F)(F)F)c2)OCc2ccccc21 (centres unmarked) [Example 18]

From US7632861B2, “Substituted heterocyclic ethers and their use in CNS disorders” (Bristol-Myers Squibb Company, priority 2007, dated 2009)
